In US12622975B2, “Peptide-conjugated prodrugs” (priority 2019, dated 2026):
Values after ≈ are worked out from the molar mass of the structure shown. “Also recorded” adds a separate entry of the source.

Assays:
[1] = tested on: wild type E. coli strain (K-12); test: Bacteria culture and inhibitory activity assay (MIC); format: cell-based; conditions: for Effect of addition of exogenous PLE on inhibitory efficacy: porcine liver esterase 1 U/mL
Method: (§1) Bacteria culture and inhibitory activity assay: Single esterase (BioH, YjfP, FrsA, YbfF, YfbB, YqiA, YeiG, or and YpfH) deletion mutants were purchased from Dharmacon Horizon Discovery (Cambridge, United Kingdom). […] Compounds were added at different concentrations.
Compounds were added at different concentrations.

E. coli (K-12) lysate = test: Hydrolysis assay with E. coli lysate; format: in vitro ADME; conditions: compound 200 μM; for apparent first-order rate constant of hydrolysis: E. coli lysate 0.1 U/mL, pH 7.4 PBS, 37° C.
Method: (§2) Hydrolysis assay: Wild-type E. coli strains (K12) were harvested by centrifugation and the cell pellets were lysed using a sonic device. After centrifugation, the supernatant was collected and the proteinase inhibitor was added in the E. coli lysate. The concentration of E. coli lysate was normalized by the fluorescence intensity of 5-carboxyfluorescein diacetate (CFDA). Briefly, different concentrations of CES (4 U/mL, 2 U/mL, 1 U/mL, 0.5 U/mL, 0.25 U/mL, 0.125 U/mL, 0.0625 U/mL, 0.03125 U/mL, 0.015625 U/mL and 0 U/mL) and different amount of E. coli lysates were prepared in PBS buffer. Followed by, 25 μM of CFDA was added in and incubated at room temperature for 1 hour. Then the fluorescence was tested to draw a fluorescence-concentration dependent curve for figuring out the concentration of E. coli lysates. Solutions of CLsuGG (200 μM) were prepared in pH 7.4 PBS buffer. CES and E. coli lysate (0.1 U/mL) were added and incubated with above solutions at 37° C. for 24 hours. At different time points, the solution was taken out, extracted with an equal volume of butanol, concentrated to dryness, and resuspended with butanol for HPLC analysis. HPLC was performed with Agilent 1100 Series Liquid Chromatograph equipped with an XTerra C18 reverse phase column and Variable Wavelength Detector. The hydrolyzed mixture resuspended in 1 mL of butanol was injected to HPLC mobile phase (0.1% trifluoroacetic acid, the starting ratio: 10% acetonitrile and 90% water). The system was run at a flow rate of 10 mL/min.
as §2, with “analysis.” for “analysis. HPLC was performed with Agilent 1100 Series Liquid Chromatograph equipped with an XTerra C18 reverse phase column and Variable Wavelength Detector. The hydrolyzed mixture resuspended in 1 mL of butanol was injected to HPLC mobile phase (0.1% trifluoroacetic acid, the starting ratio: 10% acetonitrile and 90% water). The system was run at a flow rate of 10 mL/min.”

carboxylesterase (CES) = test: Hydrolysis assay with exogenous carboxylesterase; format: in vitro ADME, porcine; conditions: CES 0.1 U/mL
Source text: Experimental materials and instruments. All the solvents and chemical reagents were used directly as received from the commercial sources without further purification unless otherwise stated. Carboxylesterase (CES) from porcine liver was purchased from Sigma-Aldrich (lyophilized powder, >15 units/mg solid; Unit definition: One unit will hydrolyze 1.0 μmole of ethyl butyrate to butyric acid and ethanol per min at pH 8.0 at 25). CLsuGG, CLsuG, CLsuGGG were purified with Agilent 1100 Series Liquid Chromatography system, equipped with an XTerra C18 RP column and Variable Wavelength detector.
as §2, with “Briefly, different concentrations of CES (4 U/mL, 2 U/mL, 1 U/mL, 0.5 U/mL, 0.25 U/mL, 0.125 U/mL, 0.0625 U/mL, 0.03125 U/mL, 0.015625 U/mL and 0 U/mL) and different amount of E. coli lysates were prepared in PBS buffer. Followed by, 25 μM of CFDA was added in and incubated at room temperature for 1 hour.” left out, “CES and E. coli lysate (0.1 U/mL) were added and incubated with above solutions at 37° C. for 24 hours.” left out

[2] = tested on: YdgR transporter knockout mutants of E. coli; test: Antibacterial activity against YdgR transporter knockout mutant; format: cell-based; conditions: YdgR mutant versus wild-type E. coli
Method: as §1
To verify whether bacterial oligopeptide transporters are involved in the uptake of CLsuGG, the activities of CLsuGG against the YdgR mutant and wild-type E. coli was compared (FIG. 4A). The deletion of YdgR, an inner membrane (IM) proton-coupled transporter for uptaking di- and tripeptides (Prabhala et al., “The Prototypical Proton-Coupled Oligopeptide Transporter YdgR from Escherichia coli Facilitates Chloramphenicol Uptake into Bacterial Cells,” J. Biol. Chem. 293(3):1007-1017 (2018), which is hereby incorporated by reference in its entirety), indeed rescues the bacteria, i.e., increasing cell viability for about 10%.

[3] = tested on: esterase (bioH, yjfP, frsA, ybfF, yfbB, ypfH, yeiG, or yqiA) deletion mutants of E. coli; format: cell-based; conditions: for reduction of antibacterial activity by deletion of the cytoplasmic esterase: single esterase gene deletion
Method: Bacteria culture and inhibitory activity assay: Single esterase (BioH, YjfP, FrsA, YbfF, YfbB, YqiA, YeiG, or and YpfH) deletion mutants were purchased from Dharmacon Horizon Discovery (Cambridge, United Kingdom). The K12 wild-type E. coli strain (MG1655) was cultured in autoclaved LB medium (25 g/L LB broth/water) in a shaker-incubator overnight to stationary growth phase, and then sub-cultured in the same medium after dilution to OD600 of 0.05. Compounds were added at different concentrations. The mixture of bacteria and compounds were placed (200 μL/well) into 96-well clear flat bottom plates. In all plates, the OD600 was measured before and after 16 hour incubation at 37° C.
(§3) Bacteria culture and inhibitory activity assay: Single esterase (bioH, frsA, ybfF, yfbB, yqiA, yeiG, or ypfH) deletion mutants, bacterial transporter (ydgR, fepA and ompF) deletion mutants and the efflux pump (acrA) deletion mutant were all purchased from Dharmacon Horizon Discovery (Cambridge, United Kingdom). The K12 wild-type E. coli strain (MG1655) was cultured in autoclaved LB medium (25 g/L LB broth/water) in a shaker-incubator overnight to stationary growth phase, and then sub-cultured in the same medium after dilution to OD600 of 0.05. Compounds were added at different concentrations. The mixture of bacteria and compounds were placed (200 μL/well) into 96-well clear flat bottom plates. In all plates, the OD600 was measured before and after a 16 hour incubation at 37° C.

[4] = tested on: double esterase (BioH and YjfP) deletion mutant of E. coli; test: Antibacterial activity against double esterase deletion mutant; format: cell-based
Method: as §1
To examine the roles of different intrabacterial esterases on the hydrolysis of CLsuGG, the activities of CLsuGG against eight E. coli mutants that have one of bacterial esterase genes (i.e., BioH, YjfP, FrsA, YbfF, YeiG, YfbB, YpfH or YqiA) deleted was measured. […] To confirm the role of intrabacterial esterases, a double mutant E. coli was generated, with the deletion of BioH and YjfP genes (FIGS. 5C-5D). […] These studies confirm that, after CLsuGG enters E. coli, various esterases in bacterial cytoplasm rapidly convert CLsuGG to the active antibiotic agent (i.e., CL).

HS-5 cells = test: Cell viability assay (MTT), HS-5; format: cell-based, human; conditions: 24 hours
HepG2 cells = test: Cell viability assay (MTT), HepG2; format: cell-based; conditions: 20 μM, 24 hours
Water solubility = format: physicochemical
HEK293 cells = test: Cell viability assay (MTT), HEK293; conditions: 20 μM, 24 hours
[5] = Stability in human serum (LC-MS); format: in vitro ADME; conditions: human serum, 200 μM, 37° C.
[6] = tested on: acrA efflux pump deletion mutant of E. coli; conditions: acrA mutant versus wild-type E. coli
Method: as §3
(§4) Several representative peptides conjugating CLsu (e.g., 1c, 1d, 2b and 2c) were chosen to study the effects of conjugated peptides on the uptake of the prodrugs.

[7] = tested on: ydgR, fepA, ompF transporter deletion mutants of E. coli; conditions: mutants versus wild-type E. coli
Method: as §3, §4

E. coli K-12 = conditions: E. coli K-12, literature values; cited from earlier work

Structure (SMILES)	MIC (μM) ([1]; wild type E. coli (K-12)) [µM]	apparent first-order rate constant of hydrolysis (E. coli (K-12) lysate) [h⁻¹]	Effect of addition of exogenous PLE on inhibitory efficacy [1]	Compounds remaining (%) 0 h [5] [%]	Compounds remaining (%) 2 h [5] [%]	Compounds remaining (%) 24 h [5] [%]	reduction of the viabilities of the acrA deletion mutant treated by the conjugates [6] [%]	effect of deletion of ydgR, fepA, or ompF on treated bacteria [7]	reduction of antibacterial activity by deletion of the cytoplasmic esterase [3]	also measured
O=C(O)CNC(=O)CNC(=O)CCC(=O)OCC(NC(=O)C(Cl)Cl)C(O)c1ccc([N+](=O)[O-])cc1 (centres unmarked) [CLsuGG]	20 (≈ 10.7 µg/mL)	-1.868	–	–	–	–	–	–	–	Effect of addition of CES on the MIC value ([1]; exogenous CES): hardly affected; MIC (μg/mL) ([1]; wild type E. coli (K-12)): 10.7 µg/mL (≈ 19.9 µM); time to complete hydrolysis (E. coli (K-12) lysate; intrabacterial esterases 0.1 U/mL): ≤ 2 h; time to complete hydrolysis (carboxylesterase (CES)): more than 12 hours; conversion (carboxylesterase (CES); after 2 hours): around 70%; apparent first-order rate constant of hydrolysis (carboxylesterase (CES); compound 200 μM): -0.443 h⁻¹; increase of cell viability by deletion of YdgR [2]: about 10%; reduction of antibacterial activity by single esterase gene deletion [3]: slightly; antibacterial activity relative to the activity against wild type E. coli [4]: 50%; cytotoxicity / cell viability of HS-5 cells (HS-5 cells; 20 μM): largely innocuous; also recorded: reduced toxicity; cytotoxicity / cell viability of HepG2 cells (HepG2 cells): hardly altered the cytotoxicity of CL; water solubility (Water solubility): soluble; cytotoxicity / cell viability of HEK293 cells (HEK293 cells): hardly altered the cytotoxicity of CL
O=C(CCC(=O)OCC(NC(=O)C(Cl)Cl)C(O)c1ccc([N+](=O)[O-])cc1)NCC(=O)NC(CO)C(=O)O (centres unmarked) [Compound 1c]	20 (≈ 11.3 µg/mL)	3.763	hardly changes	100	0	0	30	hardly rescues the bacteria	about 20%	–
O=C(O)CNC(=O)C(CO)NC(=O)CCC(=O)OCC(NC(=O)C(Cl)Cl)C(O)c1ccc([N+](=O)[O-])cc1 (centres unmarked) [Compound 1d]	40 (≈ 22.7 µg/mL)	1.267	hardly changes	100	16.7	0	40	hardly rescues the bacteria	~10%	–
NCCCCC(NC(=O)C(CCCCN)NC(=O)CCC(=O)OCC(NC(=O)C(Cl)Cl)C(O)c1ccc([N+](=O)[O-])cc1)C(=O)O (centres unmarked) [Compound 2b]	200 (≈ 136 µg/mL)	0.317	hardly changes	100	52.9	0	20	hardly rescues the bacteria	about 20%	–
NCCCCC(NC(=O)C(CCCCN)NC(=O)CCC(=O)OCC(NC(=O)C(Cl)Cl)C(O)c1ccc([N+](=O)[O-])cc1)C(=O)O (centres unmarked) [Compound 2c]	200 (≈ 136 µg/mL)	0.310	hardly changes	100	49.2	0	50	hardly rescues the bacteria	about 20%	–
COc1cc(Cc2cnc(N)nc2N)cc(OC)c1OC [trimethoprim]	–	–	–	–	–	–	–	–	–	cytotoxicity of control compounds against HS-5 cells (HS-5 cells; around MIC values (0.5 μM)): relatively low cytotoxicity; MIC (E. coli K-12): 1 µg/mL (≈ 3.44 µM)
